Assay results as given in PMC11356819 (Molecules, 2024).

How the values were obtained:
U87-mIDH cells = assay: cellular uptake in U87-mIDH cells; type: cell-based, human
Method: (§1) Consistent with this assumption, uptake of [^18F]4 and, to a lesser extent, the ^18F-fluoroethoxylated analog [^18F]5 by both cell lines was considerably higher than that of (S)-[^18F]2.
(§2) Human glioblastoma cells with a c.395G>A knock-in mutation encoding mIDH1R132H (HTB-14IG™) and the corresponding wildtype cells (HTB-14™) were purchased from the American Type Culture Collection (ATCC). The cells were grown under standard culture conditions (5% CO2 and 95% air at 37 °C) in Eagle’s Minimum Essential Medium (MEM) supplemented with 10% fetal bovine serum (FBS) and antibiotics (penicillin–streptomycin mixed solution, Gibco, Thermo Fisher Scientific, Oberhausen, Germany).
(§3) For the cellular uptake studies, 1.5 × 10^5 cells were seeded into gelatin-coated 12-well transwell plates and incubated in 1 mL MEM (without FBS and antibiotics) containing 18.5 kBq (0.5 µCi) of the corresponding radiotracer. After incubation at 21 °C for 1 h, the supernatant was collected, the cells were lysed with 40 mM NaOH and the radioactivity of both fractions was measured with a gamma counter. The total protein concentration of the cell lysate was measured by a bicinchoninic acid (BCA) assay. The radiotracer uptake was calculated as the ratio of radioactivity in the cell fraction and the supernatant and normalized by protein content (% uptake/100 µg protein). Statistical analysis of the results was performed with Originlab Pro 2023b using two-tailed t-tests with a significance level of 0.05 to identify significant differences between groups.

U87-WT cells = assay: cellular uptake in U87-WT cells; type: cell-based, human; settings: incubation 1 h
Method: as §1, §2, §3

[1] = lipophilicity by shake-flask method (n-octanol/water or PBS); type: physicochemical; settings: triplicate
Method: As a measure for the lipophilicity of the four radiolabeled probes, their partition coefficients (logP) and distribution coefficients at pH 7.4 (logD7.4) were determined by the shake-flask method. Table 1 summarizes the results of these experiments and compares them with the predicted logD7.4 values calculated using the ADMETlab platform.
A solution of the corresponding radiotracer in DMSO (1 µL) was added to a mixture of n-octanol and PBS (pH = 7.4) or water (750 µL of each) in a 2 mL Eppendorf vial and the vial was vortexed for 2 min and centrifuged for another 2 min to separate the two phases. A total of 300 µL of the upper n-octanol phase was then carefully removed from the top, while 300 µL of the aqueous phase was removed by piercing the bottom of the vial with a syringe and cannula to avoid contact with the organic phase. Both fractions were transferred into fresh vials and counted in a gamma counter to determine the ratio between the activity in the organic and the aqueous phase. All measurements were performed in triplicate and the results are expressed as mean ± standard deviation of the logarithm of the partition coefficient between n-octanol and water (logP) or the logarithm of the distribution coefficient between n-octanol and PBS (logD7.4), respectively.

U87-mIDH tumors = assay: PET imaging and 2TCM kinetic modelling of subcutaneous U87-mIDH tumors; type: in vivo
Source text: The in vivo tumor uptake and mIDH selectivity of [^18F]4 were investigated by small animal PET imaging in CB17-SCID mice bearing subcutaneous U87-WT and U87-mIDH tumors, which were implanted in the right and left shoulder region, respectively (Figure 6).
Although the use of an image-derived input function instead of an invasive arterial input function could introduce some degree of systematic bias (due to, e.g., a lack of correction for spill-over and metabolism), this should affect the parameter estimation for both tumors in a given animal in the same manner and therefore have little impact on inter-tumor comparisons.
Six male CB17-SCID mice (24–26 g) were used for the subcutaneous tumor model. Twenty-four hours before tumor implantation, the animals were injected (i.p.) with 20 µL anti-asialo GM1 rabbit (Fujifilm Wako Chemicals Europe GmbH, Neuss, Germany) in 0.9% NaCl (total volume: 100 µL) to promote tumor cell survival and growth through a temporary reduction in natural killer cell activity. For tumor inoculation, suspensions of 5 × 10^6 tumor cells in 75 µL culture medium and 75 µL Corning Matrigel (Merck, Darmstadt, Germany) were injected subcutaneously into the right (U87-WT cells) and left (U87-mIDH cells) shoulder region.
The mice were anesthetized with isoflurane (5% for induction, 2% for maintenance) in O2/air (3:7), and a catheter for tracer injection was inserted into the lateral tail vein. They were placed on an animal holder (Medres, Cologne, Germany) and fixed with a tooth bar in a respiratory mask. Body temperature was maintained at 37 °C by warming the animal bed. Eyes were protected from drying with Bepanthen eye and nose ointment (Bayer, Leverkusen, Germany). Respiratory rate was monitored and maintained at around 40–60 breaths per minute by adjusting the isoflurane concentration. A PET scan in list mode was conducted using a Focus 220 micro PET scanner (CTI-Siemens, Erlangen, Germany) with a resolution at the center of the field of view of 1.4 mm. Data acquisition started with intravenous tracer injection and ended after 120 min. This was followed by a 10 min transmission scan using a ^57Co point source for attenuation correction. After the scan was completed, the catheter was removed and the animals were allowed to wake up in their home cage. Data were histogrammed in three ways: (1) 4 × 30 min frames for visual display, (2) 28 frames (2 × 1 min, 2 × 2 min, 6 × 4 min, 18 × 5 min) for determination of time–activity curves, (3) 53 frames (12 × 10 s, 6 × 30 s, 15 × 1 min, 20 × 5 min) for kinetic modelling. Full 3D rebinning was followed by an iterative OSEM3D/MAP reconstruction algorithm with attenuation and decay correction. The resulting voxel sizes were 0.47 mm × 0.47 mm × 0.80 mm.

## COc1cc(NCc2cc3cc([18F])ccc3[nH]c2=O)ccc1C#N [[^18F]4]
U87-mIDH cells; U87-mIDH and U87-WT cells
  fold higher cellular uptake than (S)-[^18F]2: 5−8 fold
U87-mIDH cells; U87-mIDH cells, incubation 1 h
  cellular uptake: 6.0 ± 2.0 % per 100 µg protein
U87-WT cells
  cellular uptake: 4.7 ± 1.4 % per 100 µg protein
[1]; n-octanol/PBS pH 7.4, shake-flask, read-out: logD7.4 Exp. Determined
  logD: 2.67 ± 0.04
[1]; n-octanol/water, shake-flask, read-out: logP
  logP: 2.5 ± 0.03
U87-mIDH tumors; 0–30 min
  SUVbw U87-mIDH: 31 ± 3
U87-mIDH tumors; 30–60 min
  SUVbw U87-mIDH: 24 ± 2
U87-mIDH tumors; 60–90 min
  SUVbw U87-mIDH: 18 ± 1
U87-mIDH tumors; 90–120 min
  SUVbw U87-mIDH: 16 ± 1
U87-mIDH tumors; U87-mIDH tumor, 2TCM, n = 5
  K1: 0.141 ± 0.047 mL/ccm/min
  K1/k2: 0.246 ± 0.063 mL/ccm
  VS (specific distribution volume): 0.225 ± 0.070 mL/ccm
  VT (total distribution volume): 0.471 ± 0.084 mL/ccm
  k2: 0.578 ± 0.173 min⁻¹
  k3: 0.057 ± 0.040 min⁻¹
  k3/k4, BPND (non-displaceable binding potential): 0.962 ± 0.399 1/1
  k4: 0.053 ± 0.023 min⁻¹
U87-mIDH tumors; peak after 8 min, n = 3
  max. SUVbw U87-mIDH tumors: 35 ± 8
